System: oil seed rape plants (Brassica napus)
Test: Greenhouse trial of surfactants as adjuvants for Glyphosate
Assay type: in vivo
Conditions: for % control: fresh weight vs untreated controls
Text: A greenhouse trial was run to evaluate the effectiveness of the surfactants of the invention as adjuvants for Glyphosate in controlling the growth of (non-roundup ready) oil seed rape plants (Brassica napus). The trial used surfactant of the invention (SE1) and control adjuvant (FAE) at 3 rates, with 3 rates of glyphosate application, and controls including 3 glyphosate rates without surfactant, all grown in randomised blocks. 10 replications were used for each application, with 1 pot (7×7×8 cm) per plot and at least 4 plants per pot, in Levington M2 medium. The greenhouse conditions of temperature and humidity were recorded and watering was carried out by capillary matting. Additional lighting was provided over natural daylight. The glyphosate treatments were carried out using a pre-calibrated Mardrive greenhouse cabinet sprayer at a volume rate of about 200 I.ha^−1. […]
The type and application rate (Rate in g.ha^−1) of nominally 100% adjuvant, the application rate (Rate in g.ha^−1 active) of glyphosate, the glyphosate to adjuvant weight ratio (G:A) applied to the test plants and the visual assessment (%), and the % control are set out in Table AEA1 below.

[1] = 28 d, glyphosate 125 g.ha^−1, no adjuvant
[2] = 28 d, glyphosate 250 g.ha^−1, no adjuvant
[3] = 28 d, glyphosate 500 g.ha^−1, no adjuvant

For `O=C(O)CNCP(=O)(O)O` [Glyphosate, N-phosphonomethyl glycine], the “% damage” value (15 d, glyphosate 125 g.ha^−1, no adjuvant) was 0%, the “% damage” value (15 d, glyphosate 250 g.ha^−1, no adjuvant) was 1.5% and the “% damage” value (15 d, glyphosate 500 g.ha^−1, no adjuvant) was 11%. For the same compound, the “% damage” value (21 d, glyphosate 125 g.ha^−1, no adjuvant) was 5%, the “% damage” value (21 d, glyphosate 250 g.ha^−1, no adjuvant) was 5% and the “% damage” value (21 d, glyphosate 500 g.ha^−1, no adjuvant) was 33%. For the same compound, the “% control” value [1] was 0.2%, the “% control” value [2] was −6.4% and the “% control” value [3] was 49.5%. For the same compound, the “% damage” value [1] was 0%, the “% damage” value [2] was 0% and the “% damage” value [3] was 52%.

From patent US8673816B2, “Surfactants in agrochemical formulations” (Croda, Inc., priority 2009, dated 2014)
